The target of one experiment is F1-ATPase β-subunit (Homo sapiens, UniProt P06576). The note with it: effect of the analog on binding of 125I-β-casomorphin1-7 to F1-ATPase β-subunit; cited from earlier work.
A further experiment concerns rats. The following applies: in overnight fasted rats; cited from earlier work.
For experiment [1] the following is noted: in vivo; cited from earlier work.
For another experiment, the system named is AMPK. In words: pAMPK Western blot in HepG2 cells, 15 min incubation. The class given is cell-based, human. The protocol:
Human liver cells (HepG2 cell line, American Type Culture Collection, Manassas, Va.) were grown and maintained in Dulbecco's modified eagle's medium (Gibco, Carlsbad, Calif.) containing 10% fetal bovine serum, penicillin (100 I.U./ml), and streptomycin (100 μg/ml). The cells were then incubated for 15 min with 5 mM glucose and various concentrations of enterostatin (0.003, 0.01, 0.1, 1, and 3 μM) and/or of its antagonist β-casomorphin (BCM) (0.003, 0.01, 0.1, 1, and 3 μM). After incubation, the cells were lysed and the cytosolic proteins subjected to Western blot analysis for AMPK and pAMPK. The results for pAMPK activity are shown in FIG. 5A (enterostatin) and FIG. 5B (BCM). […] This effect was blocked by the presence of an antibody to the enterostatin receptor (anti F1-ATPase beta subunit).
On the technique in general: Immunoblotting shows a protein as a band on a membrane.

Chain of F1-ATPase β-subunit (P06576 48-529): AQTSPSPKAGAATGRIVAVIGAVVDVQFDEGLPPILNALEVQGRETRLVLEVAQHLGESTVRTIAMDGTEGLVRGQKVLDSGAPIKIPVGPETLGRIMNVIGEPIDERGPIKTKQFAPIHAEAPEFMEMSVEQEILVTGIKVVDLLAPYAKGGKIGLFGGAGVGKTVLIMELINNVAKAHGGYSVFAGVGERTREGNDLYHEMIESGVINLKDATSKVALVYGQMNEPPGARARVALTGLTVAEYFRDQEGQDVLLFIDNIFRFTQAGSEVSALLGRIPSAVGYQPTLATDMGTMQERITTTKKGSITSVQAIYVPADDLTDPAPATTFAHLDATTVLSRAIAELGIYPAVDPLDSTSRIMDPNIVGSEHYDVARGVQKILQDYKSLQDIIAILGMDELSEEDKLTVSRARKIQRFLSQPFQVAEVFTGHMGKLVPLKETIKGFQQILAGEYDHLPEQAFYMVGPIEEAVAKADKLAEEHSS

As for APGPRCY [enterostatin analog], the “Binding of 125I-β-casomorphin1-7” value in the experiment with F1-ATPase β-subunit was “Increased”. Moreover, in the experiment on rats, the “Intake of high fat diet” value is listed as “Suppression”.

Regarding YPGPR, at F1-ATPase β-subunit, the “Binding of 125I-β-casomorphin1-7” value was “Increased”. In addition, the “Intake of high fat diet” value in the experiment on rats is recorded as “Suppression”.

PGPCY: on F1-ATPase β-subunit, the “Binding of 125I-β-casomorphin1-7” value is “Increased”. In the experiment on rats, the “Intake of high fat diet” value is given as “No changes”.

Turning to APGPRY, the “Binding of 125I-β-casomorphin1-7” value on F1-ATPase β-subunit was “Increased”. The “Intake of high fat diet” value with rats is recorded as “No changes”.

As to VPDPR-NH2, the “Binding of 125I-β-casomorphin1-7” value on F1-ATPase β-subunit was “Displaced”. Moreover, in the experiment with rats, the “Intake of high fat diet” value is “No changes”.

On to VPDPR, for which the “Binding of 125I-β-casomorphin1-7” value on F1-ATPase β-subunit is on record as “Increased”. In addition, the “Intake of high fat diet” value in the experiment on rats is listed as “Suppression”.

PDP: on F1-ATPase β-subunit, the “Binding of 125I-β-casomorphin1-7” value is “Increased”. The “Intake of high fat diet” value in the experiment on rats is “Suppression”.

As for PGP, the “Binding of 125I-β-casomorphin1-7” value at F1-ATPase β-subunit is “Increased”. In addition, in the experiment on rats, the “Intake of high fat diet” value was “No changes”.

For the molecule YPFPGPI [enterostatin analog], the “Binding of 125I-β-casomorphin1-7” value with F1-ATPase β-subunit is “Displaced”. Moreover, the “Intake of high fat diet” value in the experiment on rats is reported as “Stimulation”.

Regarding “Glucagon: drug for severe hypoglycemia that stimulates the liver to release large amounts of glucose”, in experiment [1], the “Time to restore blood sugar” value is 5 to 15 min.

Regarding CYDPGPR [enterostatin analog], the “Binding of 125I-β-casomorphin1-7” value with F1-ATPase β-subunit is listed as “Displaced”. In addition, in the experiment on rats, the “Intake of high fat diet” value is recorded as “Stimulation”.

For the molecule DPGPR, on F1-ATPase β-subunit, the “Binding of 125I-β-casomorphin1-7” value is listed as “Displaced”. Besides, the “Intake of high fat diet” value in the experiment on rats is “No changes”.

With β-casomorphin [reference compound], in the experiment with AMPK (HepG2, 0.1 or 1.0 μM, 15 min), the pAMPK levels result is “increased pAMPK levels”. Further, the “Effect on pAMPK in presence of antibody anti F1-ATPase beta subunit” value in the experiment with AMPK (HepG2, 15 min, 5 mM glucose) is listed as “blocked this effect”. Further, the “AMPkinase activity shown by pAMPK” value in the experiment on AMPK (HepG2, 15 min, 5 mM glucose, 0.003-3 μM) was “activated AMPkinase”.

For the molecule YGGAPGPR [enterostatin analog], the “Binding of 125I-β-casomorphin1-7” value with F1-ATPase β-subunit is reported as “Increased”. For the same molecule, in the experiment on rats, the “Intake of high fat diet” value is “Suppression”.

For cyclo-HP, the “Intake of high fat diet” value with rats is on record as “^bOnly inhibits food intake as cyclo-HP”.

Regarding `CC1=NS(=O)(=O)c2cc(Cl)ccc2N1` [Diazoxide, diazoxide], in experiment [1], the Duration of action entry is on record as “about 8 hr” and the “Time to act (increase of blood sugar)” value was no more than 1 h.

For YVPDPR, at F1-ATPase β-subunit, the “Binding of 125I-β-casomorphin1-7” value is recorded as “Increased”. Moreover, the “Intake of high fat diet” value with rats is listed as “Suppression”.

With APGPY, the “Binding of 125I-β-casomorphin1-7” value on F1-ATPase β-subunit was “Increased”. In addition, the “Intake of high fat diet” value with rats was “Suppression”.

Turning to APGPR, the “Binding of 125I-β-casomorphin1-7” value on F1-ATPase β-subunit is recorded as “Increased”. Moreover, the “Intake of high fat diet” value in the experiment on rats is reported as “Suppression”.

With YPDPR, on F1-ATPase β-subunit, the “Binding of 125I-β-casomorphin1-7” value is recorded as “Increased”. The “Intake of high fat diet” value in the experiment on rats was “Suppression”.

VPDPRCY [enterostatin analog]: the “Binding of 125I-β-casomorphin1-7” value with F1-ATPase β-subunit is given as “Increased”. Moreover, the “Intake of high fat diet” value in the experiment on rats is on record as “Suppression”.

Regarding CYAPGPR [enterostatin analog], in the experiment with F1-ATPase β-subunit, the “Binding of 125I-β-casomorphin1-7” value was “Displaced”. The “Intake of high fat diet” value in the experiment with rats is “Stimulation”.

The record behind these values is patent US20100267629A1, “Enterostatin as Therapeutic Agent for Hypoglycemia” (Board of Supervisors of Louisiana State University and …, priority 2006, published 2010).
